For 26 compounds, AC50 results are on record in patent US12673961B2 (Agios Pharmaceuticals, Inc., priority 2022, dated 2026).

Molecules are shown by their SMILES.

For the assay, the target named is T1, human PAH with the R408W mutation (Homo sapiens, UniProt P00439, R408W).
T1 construct: expressed in transfected cells
T1 sequence (P00439 1-452 R408W): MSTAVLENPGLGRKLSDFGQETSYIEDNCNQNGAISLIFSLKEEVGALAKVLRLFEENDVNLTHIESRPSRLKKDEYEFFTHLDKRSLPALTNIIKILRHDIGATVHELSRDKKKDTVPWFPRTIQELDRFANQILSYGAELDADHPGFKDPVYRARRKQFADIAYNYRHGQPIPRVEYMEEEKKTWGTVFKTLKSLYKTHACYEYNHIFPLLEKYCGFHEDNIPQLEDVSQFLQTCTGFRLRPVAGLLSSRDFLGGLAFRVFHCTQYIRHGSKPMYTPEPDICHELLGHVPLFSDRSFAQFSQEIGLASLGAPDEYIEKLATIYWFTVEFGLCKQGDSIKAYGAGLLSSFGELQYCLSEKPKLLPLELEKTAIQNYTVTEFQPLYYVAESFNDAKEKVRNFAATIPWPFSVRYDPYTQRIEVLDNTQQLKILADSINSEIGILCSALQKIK
Nature of the assay: Cell Based Phenylalanine Flux Assay.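 Note: Ten-point dose curve from 2-fold serial dilutions, run in duplicate at 0.5% DMSO final, tracer step used 20 µM sepiapterin and 800 µM labeled phenylalanine.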 To be noted: A375 cells expressing human R408W PAH; 24 hrs with compound, then sepiapterin and 13C9,15N-Phenylalanine for 4 hours; 13C-Tyrosine by LC-MS; average where tested multiple times; read-out: AC50.
Regarding `CCc1cccn2nc([C@@H]3c4nc[nH]c4CCN3C(=O)c3nnc(-c4ccn(C)n4)o3)cc12` [Example 1927, (S)-(4-(4-ethylpyrazolo [1,5-a]pyridin-2-yl)-1,4,6,7-tetrahydro-5H-imidazo[4,5-c]pyridin-5-yl)(5-(1-methyl-1H-pyrazol-3-yl)-1,3,4-oxadiazol-2-yl)methanone], the AC50 was less than 0.5 µM.

On to `CC(C)c1cccn2nc([C@@H]3c4nc[nH]c4CCN3C(=O)c3nnc(-c4cnn(C(F)F)c4)o3)cc12` [Example 1936, (S)-(5-(1-(difluoromethyl)-1H-pyrazol-4-yl)-1,3,4-oxadiazol-2-yl)(4-(4-isopropylpyrazolo[1,5-a]pyridin-2-yl)-1,4,6,7-tetrahydro-5H-imidazo[4,5-c]pyridin-5-yl)methanone], for which the AC50 is less than 0.5 µM.

Regarding `CC(C)(F)c1nnc(C(=O)N2CCc3[nH]cnc3[C@H]2c2cc3c(Br)cccn3n2)o1` [Example 1938, (S)-(4-(4-bromopyrazolo [1,5-a]pyridin-2-yl)-1,4,6,7-tetrahydro-5H-imidazo [4,5-c]pyridin-5-yl)(5-(2-fluoropropan-2-yl)-1,3,4-oxadiazol-2-yl)methanone], the half-maximal activity concentration (AC50) is less than 0.5 µM.

As to `CC(C)(F)c1nnc(C(=O)N2CCc3[nH]cnc3[C@@H]2c2cc3c(Br)cccn3n2)o1` [Example 1939, (R)-(4-(4-bromopyrazolo [1,5-a]pyridin-2-yl)-1,4,6,7-tetrahydro-5H-imidazo [4,5-c]pyridin-5-yl)(5-(2-fluoropropan-2-yl)-1,3,4-oxadiazol-2-yl)methanone], the AC50 was in the range of 1 to 5 µM.

For `Cc1c(-c2nnc(C(=O)N3CCc4[nH]cnc4[C@H]3c3cc4c(C(C)C)cccn4n3)o2)cnn1C` [Example 1948, (S)-(5-(1,5-dimethyl-1H-pyrazol-4-yl)-1,3,4-oxadiazol-2-yl)(4-(4-isopropylpyrazolo [1,5-a]pyridin-2-yl)-1,4,6,7-tetrahydro-5H-imidazo[4,5-c]pyridin-5-yl)methanone], the concentration at half-maximal activity (AC50) is less than 0.5 µM.

Regarding `Cc1c(-c2nnc(C(=O)N3CCc4[nH]cnc4[C@@H]3c3cc4c(C(C)C)cccn4n3)o2)cnn1C` [Example 1949, (R)-(5-(1,5-dimethyl-1H-pyrazol-4-yl)-1,3,4-oxadiazol-2-yl)(4-(4-isopropylpyrazolo [1,5-a]pyridin-2-yl)-1,4,6,7-tetrahydro-5H-imidazo[4,5-c]pyridin-5-yl)methanone], the half-maximal activity concentration (AC50) was 1 to 5 µM.

Regarding `Fc1ccc(-c2nnc(N3CCc4[nH]cnc4[C@@H]3c3cc4c(F)cccn4n3)o2)cc1` [Example 1952, (R)-2-(4-fluorophenyl)-5-(4-(4-fluoropyrazolo[1,5-a]pyridin-2-yl)-1,4,6,7-tetrahydro-5H-imidazo[4,5-c]pyridin-5-yl)-1,3,4-oxadiazole], the concentration at half-maximal activity (AC50) is greater than 5 µM.

Consider `Fc1ccc(-c2nnc(N3CCc4[nH]cnc4[C@H]3c3cc4c(F)cccn4n3)o2)cc1` [Example 1953, (S)-2-(4-fluorophenyl)-5-(4-(4-fluoropyrazolo[1,5-a]pyridin-2-yl)-1,4,6,7-tetrahydro-5H-imidazo[4,5-c]pyridin-5-yl)-1,3,4-oxadiazole], for which the half-maximal activity concentration (AC50) was less than 0.5 µM.

Take `Cc1cccn2nc([C@@H]3c4nc[nH]c4CCN3C(=O)c3cnc(C(C)(C)F)o3)cc12` [Example 1959, (S)-(2-(2-fluoropropan-2-yl)oxazol-5-yl)(4-(4-methylpyrazolo[1,5-a]pyridin-2-yl)-1,4,6,7-tetrahydro-5H-imidazo[4,5-c]pyridin-5-yl)methanone]: the half-maximal activity concentration (AC50) was less than 0.5 µM.

Consider `Cc1cccn2nc([C@H]3c4nc[nH]c4CCN3C(=O)c3cnc(-c4cnn(C)c4C)o3)cc12` [Example 1963, (R)-(2-(1,5-dimethyl-1H-pyrazol-4-yl)oxazol-5-yl)(4-(4-methylpyrazolo[1,5-a]pyridin-2-yl)-1,4,6,7-tetrahydro-5H-imidazo[4,5-c]pyridin-5-yl)methanone], for which the half-maximal activity concentration (AC50) was greater than 5 µM.

`O=C(c1nnc(-c2ccccn2)s1)N1CCc2[nH]cnc2[C@H]1c1cc2c(F)cccn2n1` [Example 1968, (S)-(4-(4-fluoropyrazolo [1,5-a]pyridin-2-yl)-1,4,6,7-tetrahydro-5H-imidazo[4,5-c]pyridin-5-yl)(5-(pyridin-2-yl)-1,3,4-thiadiazol-2-yl) methanone]: the concentration at half-maximal activity (AC50) is less than 0.5 µM.

Take `O=C(c1nnc(-c2ccccn2)s1)N1CCc2[nH]cnc2[C@@H]1c1cc2c(F)cccn2n1` [Example 1969, (R)-(4-(4-fluoropyrazolo [1,5-a]pyridin-2-yl)-1,4,6,7-tetrahydro-5H-imidazo[4,5-c]pyridin-5-yl)(5-(pyridin-2-yl)-1,3,4-thiadiazol-2-yl) methanone]: the AC50 was greater than 5 µM.

As for `Cc1cccn2nc([C@@H]3c4nc[nH]c4CCN3C(=O)c3nnc(-c4ccccn4)s3)cc12` [Example 1970, (S)-(4-(4-methylpyrazolo [1,5-a]pyridin-2-yl)-1,4,6,7-tetrahydro-5H-imidazo[4,5-c]pyridin-5-yl)(5-(pyridin-2-yl)-1,3,4-thiadiazol-2-yl) methanone], the AC50 was less than 0.5 µM.

As for `Cc1cccn2nc([C@H]3c4nc[nH]c4CCN3C(=O)c3nnc(-c4ccccn4)s3)cc12` [Example 1971, (R)-(4-(4-methylpyrazolo [1,5-a]pyridin-2-yl)-1,4,6,7-tetrahydro-5H-imidazo[4,5-c]pyridin-5-yl)(5-(pyridin-2-yl)-1,3,4-thiadiazol-2-yl) methanone], the AC50 is greater than 5 µM.

For the compound `CC(C)c1cccn2nc([C@H]3c4nc[nH]c4CCN3C(=O)c3nnc(-c4ccn(C(F)F)n4)o3)cc12` [Example 1982, (R)-(5-(1-(difluoromethyl)-1H-pyrazol-3-yl)-1,3,4-oxadiazol-2-yl)(4-(4-isopropylpyrazolo[1,5-a]pyridin-2-yl)-1,4,6,7-tetrahydro-5H-imidazo[4,5-c]pyridin-5-yl)methanone], the AC50 was greater than 5 µM.

For the compound `CC(C)c1cccn2nc([C@@H]3c4nc[nH]c4CCN3C(=O)c3nnc(-c4ccn(C(F)F)n4)o3)cc12` [Example 1983, (S)-(5-(1-(difluoromethyl)-1H-pyrazol-3-yl)-1,3,4-oxadiazol-2-yl)(4-(4-isopropylpyrazolo[1,5-a]pyridin-2-yl)-1,4,6,7-tetrahydro-5H-imidazo[4,5-c]pyridin-5-yl)methanone], the AC50 is less than 0.5 µM.

Consider `Cc1cccn2nc([C@H]3c4nc[nH]c4CCN3C(=O)c3nnc(C4CC4)s3)cc12` [Example 1996, (R)-(5-cyclopropyl-1,3,4-thiadiazol-2-yl)(4-(4-methylpyrazolo[1,5-a]pyridin-2-yl)-1,4,6,7-tetrahydro-5H-imidazo[4,5-c]pyridin-5-yl)methanone], for which the concentration at half-maximal activity (AC50) fell in the range of 1 to 5 µM.

For the compound `O=C(c1ocnc1C1CC1)N1CCc2[nH]cnc2[C@@H]1c1cc2c(C(F)(F)F)cccn2n1` [Example 2015, (R)-(4-cyclopropyloxazol-5-yl)(4-(4-(trifluoromethyl)pyrazolo [1,5-a]pyridin-2-yl)-1,4,6,7-tetrahydro-5H-imidazo[4,5-c]pyridin-5-yl)methanone], the half-maximal activity concentration (AC50) was 1 to 5 µM.

With `Cc1cccn2nc([C@H]3c4nc[nH]c4CCN3C(=O)c3nc4ccccc4o3)cc12` [Example 2021, (R)-benzo[d]oxazol-2-yl (4-(4-methylpyrazolo[1,5-a]pyridin-2-yl)-1,4,6,7-tetrahydro-5H-imidazo[4,5-c]pyridin-5-yl)methanone], the AC50 is greater than 5 µM.

As to `O=C([C@@H]1CC1(F)F)N1CCc2[nH]cnc2[C@H]1c1cc2c(F)cccn2n1` [Example 2030, ((S)-2,2-difluorocyclopropyl) ((S)-4-(4-fluoropyrazolo[1,5-a]pyridin-2-yl)-1,4,6,7-tetrahydro-5H-imidazo[4,5-c]pyridin-5-yl)methanone], the half-maximal activity concentration (AC50) was less than 0.5 µM.

`O=C(c1cnc(-c2ccccn2)o1)N1CCc2[nH]cnc2[C@@H]1c1cc2c(C(F)F)cccn2n1` [Example 2035, (R)-(4-(4-(difluoromethyl)pyrazolo[1,5-a]pyridin-2-yl)-1,4,6,7-tetrahydro-5H-imidazo [4,5-c]pyridin-5-yl)(2-(pyridin-2-yl)oxazol-5-yl)methanone]: the half-maximal activity concentration (AC50) was greater than 5 µM.

In the case of `O=C(c1ocnc1C1CC1)N1CCc2[nH]cnc2[C@@H]1c1cc2c(C(F)F)cccn2n1` [Example 2038, (R)-(4-cyclopropyloxazol-5-yl)(4-(4-(difluoromethyl)pyrazolo [1,5-a]pyridin-2-yl)-1,4,6,7-tetrahydro-5H-imidazo[4,5-c]pyridin-5-yl)methanone], the AC50 was 1 to 5 µM.

Turning to `O=C(c1ocnc1C1CC1)N1CCc2[nH]cnc2[C@H]1c1cc2c(C(F)F)cccn2n1` [Example 2039, (S)-(4-cyclopropyloxazol-5-yl)(4-(4-(difluoromethyl)pyrazolo [1,5-a]pyridin-2-yl)-1,4,6,7-tetrahydro-5H-imidazo[4,5-c]pyridin-5-yl)methanone], the AC50 is less than 0.5 µM.

For `O=C(c1ocnc1C1CC1)N1CCc2[nH]cnc2[C@H]1c1cc2c(Cl)cccn2n1` [Example 2040, (S)-(4-(4-chloropyrazolo [1,5-a]pyridin-2-yl)-1,4,6,7-tetrahydro-5H-imidazo [4,5-c]pyridin-5-yl)(4-cyclopropyloxazol-5-yl) methanone], the AC50 was less than 0.5 µM.

Consider `O=C(c1nc2ccccc2o1)N1CCc2[nH]cnc2[C@H]1c1cc2c(F)cccn2n1` [Example 2050, (S)-benzo[d]oxazol-2-yl (4-(4-fluoropyrazolo[1,5-a]pyridin-2-yl)-1,4,6,7-tetrahydro-5H-imidazo[4,5-c]pyridin-5-yl)methanone], for which the concentration at half-maximal activity (AC50) was less than 0.5 µM.

As for `CC(C)(F)c1nnc(C(=O)N2CCc3[nH]cnc3[C@@H]2c2cc3c(C4CC4)cccn3n2)o1` [Example 2060], the half-maximal activity concentration (AC50) is greater than 5 µM.
